Source: patent US12077503B2, “Substituted cyclic amides and their use as herbicides” (FMC CORPORATION, priority 2015, dated 2024)

What was measured:
Type in all cases: in vivo
[1] = tested on: giant foxtail (Setaria faberi); test: Test G Post-Emergence Protocol; conditions: Setaria faberi, post-emergence, 312 h; for pest or weed control at 15.625 g/ha: 15.625 g ai/ha, evaluated after 13 days (100=total damage to plant; 0=no damage to plant), read-out: Foxtail, Giant damage rating; for pest or weed control at 62.5 g/ha: 62.5 g ai/ha, read-out: Foxtail, Giant damage rating (100=total damage to plant; 0=no damage to plant); for pest or weed control at 62.5 g/ha / pest or weed control at 250 g/ha: evaluated after 13 days; for pest or weed control at 250 g/ha: 250 g ai/ha, read-out: damage to plant, Foxtail, Giant (100=total damage to plant; 0=no damage to plant)
In short: (§1)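 Damage was rated 13 days after treatment from 0 (none) to 100 (plant killed). Compound was applied as a spray at 15.625, 62.5 or 250 g/ha in 50:50 acetone/water containing 0.5% Tween 20, onto 8-day-old potted plants kept in a glasshouse (24/16 °C, 14 h light, 65% humidity).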

[2] = tested on: ivy-leaved morning glory (Ipomoea hederacea); test: Test G Post-Emergence Protocol; conditions: Ipomoea, post-emergence, 312 h; for pest or weed control at 15.625 g/ha: 15.625 g ai/ha, evaluated after 13 days (100=total damage to plant; 0=no damage to plant), read-out: Morningglory, Ivy-leaved damage rating; for pest or weed control at 62.5 g/ha: 62.5 g ai/ha, read-out: Morningglory, Ivy-leaved damage rating (100=total damage to plant; 0=no damage to plant); for pest or weed control at 62.5 g/ha / pest or weed control at 250 g/ha: evaluated after 13 days; for pest or weed control at 250 g/ha: 250 g ai/ha, read-out: damage to plant, Morningglory, Ivy-leaved (100=total damage to plant; 0=no damage to plant)
In short: as §1

[3] = tested on: barnyardgrass (Echinochloa crus-galli); test: Test G Post-Emergence Protocol; conditions: Echinochloa crus-galli, post-emergence, 312 h; for pest or weed control at 15.625 g/ha: 15.625 g ai/ha, evaluated after 13 days (100=total damage to plant; 0=no damage to plant), read-out: Barnyardgrass damage rating; for pest or weed control at 62.5 g/ha: 62.5 g ai/ha, read-out: Barnyardgrass damage rating (100=total damage to plant; 0=no damage to plant); for pest or weed control at 62.5 g/ha / pest or weed control at 250 g/ha: evaluated after 13 days; for pest or weed control at 250 g/ha: 250 g ai/ha, read-out: damage to plant, Barnyardgrass (100=total damage to plant; 0=no damage to plant)
In short: as §1

[4] = tested on: velvetleaf (Abutilon theophrasti); test: Test G Post-Emergence Protocol; conditions: Abutilon theophrasti, post-emergence, 312 h; for pest or weed control at 15.625 g/ha: 15.625 g ai/ha, evaluated after 13 days (100=total damage to plant; 0=no damage to plant), read-out: Velvetleaf damage rating; for pest or weed control at 62.5 g/ha: 62.5 g ai/ha, read-out: Velvetleaf damage rating (100=total damage to plant; 0=no damage to plant); for pest or weed control at 62.5 g/ha / pest or weed control at 250 g/ha: evaluated after 13 days; for pest or weed control at 250 g/ha: 250 g ai/ha, read-out: damage to plant, Velvetleaf (100=total damage to plant; 0=no damage to plant)
In short: as §1

[5] = tested on: redroot pigweed (Amaranthus retroflexus); test: Test G Post-Emergence Protocol; conditions: Amaranthus retroflexus, post-emergence, 312 h; for pest or weed control at 15.625 g/ha: 15.625 g ai/ha, evaluated after 13 days (100=total damage to plant; 0=no damage to plant), read-out: Pigweed, Redroot damage rating; for pest or weed control at 62.5 g/ha: 62.5 g ai/ha, read-out: Pigweed, Redroot damage rating (100=total damage to plant; 0=no damage to plant); for pest or weed control at 62.5 g/ha / pest or weed control at 250 g/ha: evaluated after 13 days; for pest or weed control at 250 g/ha: 250 g ai/ha, read-out: damage to plant, Pigweed, Redroot (100=total damage to plant; 0=no damage to plant)
In short: as §1

[6] = tested on: corn (Zea mays); test: Test G Post-Emergence Protocol; conditions: Zea mays, post-emergence, 312 h; for plant injury at 15.625 g/ha: 15.625 g ai/ha, evaluated after 13 days (100=total damage to plant; 0=no damage to plant), read-out: Corn damage rating; for plant injury at 62.5 g/ha: 62.5 g ai/ha, read-out: Corn damage rating (100=total damage to plant; 0=no damage to plant); for plant injury at 62.5 g/ha / plant injury at 250 g/ha: evaluated after 13 days; for plant injury at 250 g/ha: 250 g ai/ha, read-out: damage to plant, Corn (100=total damage to plant; 0=no damage to plant)
In short: as §1

[7] = tested on: giant foxtail (Setaria faberi); test: Test G Pre-Emergence Protocol; conditions: Setaria faberi, pre-emergence, 312 h, evaluated after 13 days; for pest or weed control at 15.625 g/ha: 15.625 g ai/ha; for pest or weed control at 15.625 g/ha / pest or weed control at 250 g/ha: read-out: Foxtail, Giant damage rating (100=total damage to plant; 0=no damage to plant); for pest or weed control at 62.5 g/ha: 62.5 g ai/ha, 100=total damage to plant, 0=no damage to plant, read-out: plant damage rating, Foxtail, Giant; for pest or weed control at 250 g/ha: 250 g ai/ha
In short: (§2)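 Scores are visual damage ratings from 0 (no damage) to 100 (total plant kill), taken 13 days after treatment. Compound was sprayed one day post-sowing at 15.625, 62.5 or 250 g/ha in 50:50 acetone/water with 0.5% Tween 20.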

[8] = tested on: ivy-leaved morning glory (Ipomoea hederacea); test: Test G Pre-Emergence Protocol; conditions: Ipomoea, pre-emergence, 312 h, evaluated after 13 days; for pest or weed control at 15.625 g/ha: 15.625 g ai/ha, read-out: Morning-glory, Ivy-leaved damage rating (100=total damage to plant; 0=no damage to plant); for pest or weed control at 62.5 g/ha: 62.5 g ai/ha, 100=total damage to plant, 0=no damage to plant, read-out: plant damage rating, Morningglory, Ivy-leaved; for pest or weed control at 250 g/ha: 250 g ai/ha, read-out: Morningglory, Ivy-leaved damage rating (100=total damage to plant; 0=no damage to plant)
In short: as §2

[9] = tested on: barnyardgrass (Echinochloa crus-galli); test: Test G Pre-Emergence Protocol; conditions: Echinochloa crus-galli, pre-emergence, 312 h, evaluated after 13 days; for pest or weed control at 15.625 g/ha: 15.625 g ai/ha, read-out: Barnyard grass damage rating (100=total damage to plant; 0=no damage to plant); for pest or weed control at 62.5 g/ha: 62.5 g ai/ha, 100=total damage to plant, 0=no damage to plant, read-out: plant damage rating, Barnyardgrass; for pest or weed control at 250 g/ha: 250 g ai/ha, read-out: Barnyardgrass damage rating (100=total damage to plant; 0=no damage to plant)
In short: as §2

[10] = tested on: velvetleaf (Abutilon theophrasti); test: Test G Pre-Emergence Protocol; conditions: Abutilon theophrasti, pre-emergence, 312 h, evaluated after 13 days; for pest or weed control at 15.625 g/ha: 15.625 g ai/ha; for pest or weed control at 15.625 g/ha / pest or weed control at 250 g/ha: read-out: Velvetleaf damage rating (100=total damage to plant; 0=no damage to plant); for pest or weed control at 62.5 g/ha: 62.5 g ai/ha, 100=total damage to plant, 0=no damage to plant, read-out: plant damage rating, Velvetleaf; for pest or weed control at 250 g/ha: 250 g ai/ha
In short: as §2

[11] = tested on: redroot pigweed (Amaranthus retroflexus); test: Test G Pre-Emergence Protocol; conditions: Amaranthus retroflexus, pre-emergence, 312 h, evaluated after 13 days; for pest or weed control at 15.625 g/ha: 15.625 g ai/ha; for pest or weed control at 15.625 g/ha / pest or weed control at 250 g/ha: read-out: Pigweed, Redroot damage rating (100=total damage to plant; 0=no damage to plant); for pest or weed control at 62.5 g/ha: 62.5 g ai/ha, 100=total damage to plant, 0=no damage to plant, read-out: plant damage rating, Pigweed, Redroot; for pest or weed control at 250 g/ha: 250 g ai/ha
In short: as §2

[12] = tested on: corn (Zea mays); test: Test G Pre-Emergence Protocol; conditions: Zea mays, pre-emergence, 312 h, evaluated after 13 days; for plant injury at 15.625 g/ha: 15.625 g ai/ha; for plant injury at 15.625 g/ha / plant injury at 250 g/ha: read-out: Corn damage rating (100=total damage to plant; 0=no damage to plant); for plant injury at 62.5 g/ha: 62.5 g ai/ha, 100=total damage to plant, 0=no damage to plant, read-out: plant damage rating, Corn; for plant injury at 250 g/ha: 250 g ai/ha
In short: as §2

Structure (SMILES): CN1C[C@@H](c2ccc(C(F)(F)F)cc2)[C@H](C(=O)Nc2cccc(C(F)(F)F)c2[N+](=O)[O-])C1=O (racemic) [Compound 1594]
- pest or weed control at 15.625 g/ha [1]: 0%
- pest or weed control at 62.5 g/ha [1]: 20%
- pest or weed control at 250 g/ha [1]: 20%
- pest or weed control at 15.625 g/ha [2]: 0%
- pest or weed control at 62.5 g/ha [2]: 0%
- pest or weed control at 250 g/ha [2]: 0%
- pest or weed control at 15.625 g/ha [3]: 0%
- pest or weed control at 62.5 g/ha [3]: 20%
- pest or weed control at 250 g/ha [3]: 20%
- pest or weed control at 15.625 g/ha [4]: 0%
- pest or weed control at 62.5 g/ha [4]: 0%
- pest or weed control at 250 g/ha [4]: 0%
- pest or weed control at 15.625 g/ha [5]: 0%
- pest or weed control at 62.5 g/ha [5]: 0%
- pest or weed control at 250 g/ha [5]: 0%
- plant injury at 15.625 g/ha [6]: 0%
- plant injury at 62.5 g/ha [6]: 0%
- plant injury at 250 g/ha [6]: 0%
- pest or weed control at 15.625 g/ha [7]: 0%
- pest or weed control at 62.5 g/ha [7]: 40%
- pest or weed control at 250 g/ha [7]: 30%
- pest or weed control at 15.625 g/ha [8]: 0%
- pest or weed control at 62.5 g/ha [8]: 0%
- pest or weed control at 250 g/ha [8]: 0%
- pest or weed control at 15.625 g/ha [9]: 0%
- pest or weed control at 62.5 g/ha [9]: 20%
- pest or weed control at 250 g/ha [9]: 20%
- pest or weed control at 15.625 g/ha [10]: 0%
- pest or weed control at 62.5 g/ha [10]: 0%
- pest or weed control at 250 g/ha [10]: 0%
- pest or weed control at 15.625 g/ha [11]: 0%
- pest or weed control at 62.5 g/ha [11]: 0%
- pest or weed control at 250 g/ha [11]: 0%
- plant injury at 15.625 g/ha [12]: 0%
- plant injury at 62.5 g/ha [12]: 10%
- plant injury at 250 g/ha [12]: 10%

Structure (SMILES): Cc1nonc1NC(=O)[C@@H]1C(=O)N(C)C[C@H]1c1ccc(C(F)(F)F)cc1 (racemic) [Compound 1597]
- pest or weed control at 15.625 g/ha [1]: 0%
- pest or weed control at 62.5 g/ha [1]: 0%
- pest or weed control at 250 g/ha [1]: 0%
- pest or weed control at 15.625 g/ha [2]: 0%
- pest or weed control at 62.5 g/ha [2]: 0%
- pest or weed control at 250 g/ha [2]: 0%
- pest or weed control at 15.625 g/ha [3]: 0%
- pest or weed control at 62.5 g/ha [3]: 0%
- pest or weed control at 250 g/ha [3]: 0%
- pest or weed control at 15.625 g/ha [4]: 0%
- pest or weed control at 62.5 g/ha [4]: 0%
- pest or weed control at 250 g/ha [4]: 0%
- pest or weed control at 15.625 g/ha [5]: 0%
- pest or weed control at 62.5 g/ha [5]: 0%
- pest or weed control at 250 g/ha [5]: 0%
- plant injury at 15.625 g/ha [6]: 0%
- plant injury at 62.5 g/ha [6]: 0%
- plant injury at 250 g/ha [6]: 0%
- pest or weed control at 15.625 g/ha [7]: 0%
- pest or weed control at 62.5 g/ha [7]: 0%
- pest or weed control at 250 g/ha [7]: 0%
- pest or weed control at 15.625 g/ha [8]: 0%
- pest or weed control at 62.5 g/ha [8]: 0%
- pest or weed control at 250 g/ha [8]: 0%
- pest or weed control at 15.625 g/ha [9]: 0%
- pest or weed control at 62.5 g/ha [9]: 0%
- pest or weed control at 250 g/ha [9]: 0%
- pest or weed control at 15.625 g/ha [10]: 0%
- pest or weed control at 62.5 g/ha [10]: 0%
- pest or weed control at 250 g/ha [10]: 0%
- pest or weed control at 15.625 g/ha [11]: 0%
- pest or weed control at 62.5 g/ha [11]: 0%
- pest or weed control at 250 g/ha [11]: 0%
- plant injury at 15.625 g/ha [12]: 0%
- plant injury at 62.5 g/ha [12]: 0%
- plant injury at 250 g/ha [12]: 0%
